Reference: patent publication US12195427B2, “MASP-2 inhibitors and methods of use” (priority 2018, dated 2025)
Blank lines part the entries; values can stand above or below the compound they belong to.

Target: MASP-2 CCP2-SP (Homo sapiens (Human), UniProt O00187)
Test: MASP-2 co-crystallization, X-ray crystallography and structure analysis (H-bonds, van der Waals contacts);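 as to Ligand-pharmacophore element distance, pharmacophore element C2: distance from averaged pharmacophore element to bound ligand; missing value means element absent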;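 as to Ligand-pharmacophore element distance, pharmacophore element C3: distance from averaged pharmacophore element to bound ligand; missing value means element absent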;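 as to Ligand-pharmacophore element distance, pharmacophore element C4: distance from averaged pharmacophore element to bound ligand; missing value means element absent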;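 as to Ligand-pharmacophore element distance, pharmacophore element C5: distance from averaged pharmacophore element to bound ligand; missing value means element absent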
Set-up: van der Waals contact distance, MASP-2 HIS 483 atom CD2 / van der Waals contact distance, MASP-2 HIS 483 atom NE2 / van der Waals contact distance, SER 654 C to compound atom / van der Waals contact distance, SER 654 O to compound atom / van der Waals contact distance, TRP 655 C to compound atom / van der Waals contact distance, MASP-2 GLY 528 atom CA / van der Waals contact distance TRP 655 atom CZ3 / van der Waals contact distance TRP 655 atom N / van der Waals contact distance TRP 655 atom CE3 / van der Waals contact distance GLY 656 atom C / van der Waals contact distance GLY 656 atom CA / van der Waals contact distance GLY 656 atom O / van der Waals contact distance, MASP-2 TYR 607 atom CD1 / van der Waals contact distance, MASP-2 PRO 606 atom O / d(C3,CA1) / d(CA1,N1)2 / d(H4,O1) / d(H4,O2) / d(O1,O2) / d(CA1,O2) / d(CA6,O1) / d(CA6,O2) / d(CA1,C5) / d(O2,H3) / d(N2,C2) / d(CA5,N2) / d(N2,C4) / d(N2,C6) / d(N2,CA3) / d(N2,O3) / d(O4,H2): unit not given beside the values
Conditions: for Ligand-pharmacophore element distance, pharmacophore element C2 / Ligand-pharmacophore element distance, pharmacophore element C3 / Ligand-pharmacophore element distance, pharmacophore element C4 / Ligand-pharmacophore element distance, pharmacophore element C5 / Ligand-pharmacophore element distance, pharmacophore element C6 / Ligand-pharmacophore element distance, pharmacophore element C7 / Ligand-pharmacophore element distance, pharmacophore element CA1 / Ligand-pharmacophore element distance, pharmacophore element CA2 / Ligand-pharmacophore element distance, pharmacophore element CA3 / Ligand-pharmacophore element distance, pharmacophore element CA4 / Ligand-pharmacophore element distance, pharmacophore element CA5 / Ligand-pharmacophore element distance, pharmacophore element CA6: Table A4-1; for Pharmacophore torsion angle a(O1, O2, N2, CA2): Table A7-2
In short: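 Contacts and H-bonds come from partially refined soaked-crystal structures of recombinant human CCP2-SP made in E. coli, solved by molecular replacement against 1Q3X fragments. Where several ligand poses appeared, only one was analysed; listed nonbonded contacts may include possible H-bond pairings.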

[1] = Table A5-1 pharmacophore: distance between elements, S2/S1 region
[2] = Table A5-2 pharmacophore distance, S3/S4 region
[3] = Table A7-1, between pharmacophore elements of the bound compound
[4] = between pharmacophore elements of the bound compound
[5] = Table A8-6, nearest protein atom in cell to the left

Sequence of MASP-2 CCP2-SP (O00187 445-686): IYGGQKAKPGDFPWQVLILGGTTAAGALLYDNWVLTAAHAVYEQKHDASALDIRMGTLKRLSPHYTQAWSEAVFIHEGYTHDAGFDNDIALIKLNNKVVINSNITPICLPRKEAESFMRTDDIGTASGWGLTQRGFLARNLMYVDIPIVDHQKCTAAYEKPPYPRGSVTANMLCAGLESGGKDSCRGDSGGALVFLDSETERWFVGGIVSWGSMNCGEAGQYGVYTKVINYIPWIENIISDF
Sequence of MASP-2 CCP2-SP (O00187 364-432 partner): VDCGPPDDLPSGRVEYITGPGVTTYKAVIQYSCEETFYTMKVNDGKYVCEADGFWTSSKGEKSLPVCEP

Structure (SMILES): Cc1nc(N)ccc1CNC(=O)[C@H](C)NC(=O)[C@H]1C[C@H](Cc2cccc(Cl)c2)CN1.Cl.Cl [1328_3]
Ligand-pharmacophore element distance, pharmacophore element C2: 0
Ligand-pharmacophore element distance, pharmacophore element C3: 0.21
Ligand-pharmacophore element distance, pharmacophore element C4: 1.76
Ligand-pharmacophore element distance, pharmacophore element C5: 0
Ligand-pharmacophore element distance, pharmacophore element C6: 0
Ligand-pharmacophore element distance, pharmacophore element C7: 0
Ligand-pharmacophore element distance, pharmacophore element CA1: 0.4
Ligand-pharmacophore element distance, pharmacophore element CA2: 0.48
Ligand-pharmacophore element distance, pharmacophore element CA3: 0
Ligand-pharmacophore element distance, pharmacophore element CA4: 0
Ligand-pharmacophore element distance, pharmacophore element CA5: 0
Ligand-pharmacophore element distance, pharmacophore element CA6: 0
d(C3,CA1) [1]: 2.85
d(CA1,N1)2 [1]: 1.38
d(CA1,O1) [1]: 4.82
d(CA1,O2) [1]: 3.89
d(H4,O1) [1]: 3.99
d(H4,O2) [1]: 2.55
d(O1,O2) [1]: 3.40
d(N2,C4) [2]: 7.95
d(N2,C4)4 [2]: 7.95
d(N2,CA2) [2]: 6.00
d(O2,H3) [2]: 4.77
d(O2,N2) [2]: 2.77
a(C3, CA1, O1) (Table A6-1 pharmacophore angle): 150.74
a(CA1, O1, O2) (Table A6-1 pharmacophore angle): 97.62
a(O1, O2, H4) (Table A6-1 pharmacophore angle): 122.23
a(N1, CA1, O1) b) (Table A6-1 pharmacophore angle, Methyl-amino-pyridine compounds): 173.57
a(O1, O2, H3) (Table A6-2 pharmacophore angle): 151.35
a(O1, O2, N2) (Table A6-2 pharmacophore angle): 139.67
a(O2, N2, C4) (Table A6-2 pharmacophore angle): 160.41
a(O2, N2, C4) 2 (Table A6-2 pharmacophore angle): 106.08
a(O2, N2, CA2) (Table A6-2 pharmacophore angle): 154.95
Pharmacophore torsion angle a(C3, CA1, O1, H4) [3]: 57.52
Pharmacophore torsion angle a(H4, O1, O2, H3) [3]: 47.98
Pharmacophore torsion angle a(H4, O1, O2, N2) [3]: 130.71
Pharmacophore torsion angle a(N1, CA1, O1, H4) [3]: 39.33
Pharmacophore torsion angle a(O1, H4, O2, CA1) [3]: −87.28
Pharmacophore torsion angle a(O1, O2, N2, CA2) [4]: 131.79

Structure (SMILES): C[C@H](NC(=O)[C@H]1C[C@@H](c2ccccc2)CCN1)C(=O)NCc1cc(Cl)ccc1O.Cl [1078_16]
Ligand-pharmacophore element distance, pharmacophore element C2: 0.64
Ligand-pharmacophore element distance, pharmacophore element C3: 0
Ligand-pharmacophore element distance, pharmacophore element C4: 0
Ligand-pharmacophore element distance, pharmacophore element C5: 0.42
Ligand-pharmacophore element distance, pharmacophore element C6: 0
Ligand-pharmacophore element distance, pharmacophore element C7: 0
Ligand-pharmacophore element distance, pharmacophore element CA1: 1.49
Ligand-pharmacophore element distance, pharmacophore element CA2: 0.49
Ligand-pharmacophore element distance, pharmacophore element CA3: 0
Ligand-pharmacophore element distance, pharmacophore element CA4: 0
Ligand-pharmacophore element distance, pharmacophore element CA5: 0
Ligand-pharmacophore element distance, pharmacophore element CA6: 0
d(CA1,C5) [1]: 3.13
d(CA1,O1) [1]: 4.42
d(CA1,O2) [1]: 4.54
d(CA1,O4) [1]: 2.74
d(H4,O1) [1]: 2.20
d(H4,O2) [1]: 2.69
d(O1,O2) [1]: 3.11
d(O4,H2) [1]: 0.97
d(N2,C2) [2]: 1.49
d(N2,CA2) [2]: 5.80
d(O2,H3) [2]: 2.96
d(O2,N2) [2]: 2.90
a(C5, CA1, O1) (Table A6-1 pharmacophore angle): 161.46
a(CA1, O1, O2) (Table A6-1 pharmacophore angle): 112.44
a(CA1, O4, H2) (Table A6-1 pharmacophore angle): 126.68
a(O1, CA1, O4) (Table A6-1 pharmacophore angle): 67.40
a(O1, O2, H4) (Table A6-1 pharmacophore angle): 101.76
a(O1, O2, H3) (Table A6-2 pharmacophore angle): 140.06
a(O1, O2, N2) (Table A6-2 pharmacophore angle): 144.54
a(O2, N2, C2) (Table A6-2 pharmacophore angle): 122.62
a(O2, N2, CA2) (Table A6-2 pharmacophore angle): 154.31
Pharmacophore torsion angle a(C5, CA1, O1, H4) [3]: 14.30
Pharmacophore torsion angle a(H4, O1, O2, H3) [3]: −119.50
Pharmacophore torsion angle a(H4, O1, O2, N2) [3]: −111.94
Pharmacophore torsion angle a(O1, H4, O2, CA1) [3]: −58.07
Pharmacophore torsion angle a(O1, O2, N2, C2) [3]: 136.30
Pharmacophore torsion angle a(O1, O2, N2, CA2) [4]: 139 28

H-bond distance to MASP-2 ALA 469 atom N (Table A1 (H-Bonds), ALA 469 N): 3
H-bond distance to MASP-2 HIS 483 atom NE2 (Table A1 (H-Bonds), HIS 483 NE2): 2.89
van der Waals contact distance, MASP-2 ALA 468 atom C (Table A2-1): 3.69
van der Waals contact distance, MASP-2 ALA 468 atom CA (Table A2-1): 3.52
van der Waals contact distance, MASP-2 ALA 468 atom CB (Table A2-1): 3.52
van der Waals contact distance, MASP-2 ALA 469 atom CA (Table A2-1): 3.89
van der Waals contact distance, MASP-2 HIS 483 atom CD2 (Table A2-1): 3.72
van der Waals contact distance, MASP-2 PHE 529 atom CE1 (Table A2-3): 3.21
van der Waals contact distance, MASP-2 amino acid atom to compound atom (Table A2-7: SER 628 (CB, O, OG)): 3.65
van der Waals contact distance, VAL 653 CB to compound atom (Table A2-11): 3.77
van der Waals contact distance, TRP 655 C to compound atom (Table A2-12): 3.72
van der Waals contact distance, TRP 655 CA to compound atom (Table A2-12): 3.69
van der Waals contact distance, MASP-2 amino acid atom to compound atom (Table A2 section before Table A2-8): 3.89
Ligand-pharmacophore element distance, pharmacophore element C2: 0
Ligand-pharmacophore element distance, pharmacophore element C3: 0
Ligand-pharmacophore element distance, pharmacophore element C4: 0
Ligand-pharmacophore element distance, pharmacophore element C5: 0
Ligand-pharmacophore element distance, pharmacophore element C6: 0
Ligand-pharmacophore element distance, pharmacophore element C7: 0
Ligand-pharmacophore element distance, pharmacophore element CA1: 1.47
Ligand-pharmacophore element distance, pharmacophore element CA2: 0
Ligand-pharmacophore element distance, pharmacophore element CA3: 0
Ligand-pharmacophore element distance, pharmacophore element CA4: 0
Ligand-pharmacophore element distance, pharmacophore element CA5: 0
Ligand-pharmacophore element distance, pharmacophore element CA6: 1.68
Ligand-pharmacophore element distance, pharmacophore element H1 (Table A4-2, element H1): 0
Ligand-pharmacophore element distance, pharmacophore element H2 (Table A4-2, element H2): 4.66
Ligand-pharmacophore element distance, pharmacophore element H3 (Table A4-2, element H3): 0
Ligand-pharmacophore element distance, pharmacophore element H4 (Table A4-2, element H4): 1.82
Ligand-pharmacophore element distance, pharmacophore element N1 (Table A4-2, element N1): 0
Ligand-pharmacophore element distance, pharmacophore element N2 (Table A4-2, element N2): 0
Ligand-pharmacophore element distance, pharmacophore element O1 (Table A4-2, element O1): 3.89
Ligand-pharmacophore element distance, pharmacophore element O2 (Table A4-2, element O2): 0.46
Ligand-pharmacophore element distance, pharmacophore element O3 (Table A4-2, element O3): 0
Ligand-pharmacophore element distance, pharmacophore element O4 (Table A4-2, element O4): 0
d(CA1,O1) [1]: 3.49
d(CA1,O2) [1]: 3.51
d(CA6,O1) [1]: 7.02
d(CA6,O2) [1]: 3.51
d(H4,O1) [1]: 3.02
d(H4,O2) [1]: 3.13
d(O1,O2) [1]: 5.28
a(CA1, O1, O2) (Table A6-1 pharmacophore angle): 139.05
a(O1, CA6, O2) (Table A6-1 pharmacophore angle): 75.74
a(O1, O2, H4) (Table A6-1 pharmacophore angle): 61.95
Pharmacophore torsion angle a(CA6, O1, H4, O2) [3]: 43.29
Pharmacophore torsion angle a(O1, H4, O2, CA1) [3]: 38.29
Pharmacophore protein distance to MET_658 (first MET_658 column) (Table A8-6, 6th residue column, nearest protein atom in cell to the left): 2.13
Pharmacophore protein distance to MET_658 (second MET_658 column) (Table A8-6, 9th residue column, nearest protein atom in cell to the left): 3.80
Pharmacophore protein distance to GLY_528 [5]: 3.51
Pharmacophore protein distance to PHE_529 [5]: 2.77
Pharmacophore protein distance to PRO_608 [5]: 4.32
Pharmacophore protein distance to SER_611 [5]: 2.64
Pharmacophore protein distance to TRP_655 (Table A8-6, pharmacophore elements C6, CA3, O3, H1, nearest protein atom in cell to the left): 3.76
Structure (SMILES): O=c1oc(-c2ccccc2[N+](=O)[O-])nc2ccccc12 [compound 14]
